Experimental findings from patent publication US20260007133A1, “HERBICIDAL COMPOSITION COMPRISING AZINE COMPOUNDS” (BASF SE, priority 2022, published 2026) are described below.

Common to all, as to format: in vivo
Assay [1] concerns Euphorbia heterophylla. Put plainly: Greenhouse pre-emergence (PRE) herbicidal test on EPHHL. The settings on record: 20 DAT; for inhibition at 25 g/ha: use rate 25 gai/ha. A digest of the protocol:
(§1)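 Each species is sown separately into loamy sand containing roughly 3.0% humus and treated before emergence. Pots are watered and covered until roots establish, then held at 10-25° C or 20-35° C. Injury is rated on a 0 to 100 scale 20 days post-treatment.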

Assay [2] has as its system Ipomoea hederacea. Description: Greenhouse pre-emergence (PRE) herbicidal test on IPOHE. As to conditions: Ipomoea hederacea, pre-emergence, 480 h, PRE, IPOHE, 20 DAT. An excerpt:
(§2) The culture containers used were plastic pots containing loamy sand with approximately 3.0% of humus as substrate. The seeds of the test plants were sown separately for each species.
(§3) For the pre-emergence treatment, the active compounds, suspended or emulsified in water, were applied directly after sowing by means of finely distributing nozzles. The containers were irrigated gently to promote germination and growth and subsequently covered with transparent plastic hoods until the plants had rooted. This cover caused uniform germination of the test plants unless this was adversely affected by the active compounds.
(§4) Depending on the species, the plants were kept at 10-25° C. and 20-35° C., respectively.
(§5) The test period extended over 2 to 4 weeks. During this time, the plants were tended and their response to the individual treatments was evaluated.
(§6) Evaluation was carried out using a scale from 0 to 100. 100 means no emergence of the plants, or complete destruction of at least the above-ground parts, and 0 means no damage or normal course of growth. A good herbicidal activity is given at values of at least 70, and very good herbicidal activity is given at values of at least 85.
(§7) If not stated differently, the respective components A and B, and if appropriate, C were formulated as a 5% by weight strength emulsion concentrate and, with addition of the amount of solvent system, introduced into the spray liquor used for applying the active compound.
(§8) As indicated application was either post emergent (POST) at the respective growth stage (GS) of the weed (BBCH code), or pre-emergent (PRE).
(§9) Assessment was 20 days after treatment (DAT).

Assay [3] deals with Abutilon theophrasti. Description: Greenhouse post-emergence (POST) herbicidal test on ABUTH. The settings on record: 20 DAT. Summed up: (§10)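 For this test, compounds formulated as a 5% by weight emulsion concentrate were diluted into spray liquor and applied post-emergence. Species were kept at 10-25° C or 20-35° C and injury was scored at 20 DAT on a 0–100 scale.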
The test system of assay [4] is Amaranthus retroflexus. Description: Greenhouse post-emergence (POST) herbicidal test on AMARE. As to conditions: 20 DAT; for inhibition at 25 g/ha: use rate 25 gai/ha. A digest of the protocol: as §10
For assay [5], the system named is Geranium pusillum. Put plainly: Greenhouse post-emergence (POST) herbicidal test on GERPU. As to conditions: Geranium pusillum, post-emergence, 480 h, 20 DAT. Summed up: as §10
Assay [6] has as its system Abutilon theophrasti. Put plainly: Greenhouse pre-emergence (PRE) herbicidal test on ABUTH. As to conditions: for % activity solo application: ABUTH. A digest of the protocol: as §1
The subject of the next assay is Commelina benghalensis. Put plainly: Greenhouse pre-emergence (PRE) herbicidal test on COMBE. The settings on record: 20 DAT. Summed up: as §1
Assay [7] has as its system Geranium pusillum. Put plainly: Greenhouse pre-emergence (PRE) herbicidal test on GERPU. As to conditions: PRE, 20 DAT; for % activity: GERPU.
Source text: as §2, §3, §4, §5, §6, §7, §8, §9

The subject of assay [8] is Amaranthus retroflexus. Put plainly: Greenhouse pre-emergence (PRE) herbicidal test on AMARE. The settings on record: 20 DAT; for % activity solo application: PRE, AMARE. Summed up:
as §1

Another assay deals with Ambrosia artemisiifolia. Put plainly: Greenhouse pre-emergence (PRE) herbicidal test on AMBEL. As to conditions: for % activity solo application / % activity: PRE; for % activity solo application: AMBEL; for % activity: 10 DAT.
In another assay the test system is Lolium multiflorum. Put plainly: Greenhouse pre-emergence (PRE) herbicidal test on LOLMU. As to conditions: 20 DAT; for % activity solo application: PRE, LOLMU. A digest of the protocol: as §1
A further assay has as its system Setaria viridis. Put plainly: Greenhouse pre-emergence (PRE) herbicidal test on SETVI. As to conditions: 20 DAT; for % activity solo application: PRE, SETVI. A digest of the protocol:
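PRE spray directly after sowing, fine nozzles; actives suspended/emulsified in water, components formulated as 5% w/w EC in spray liquor. Substrate loamy sand ~3.0% humus. Hooded until rooting; 10-25° C. / 20-35° C. per species. Score 0–100, 20 DAT.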

For assay [9], the system named is Echinochloa crus-galli. Description: Greenhouse post-emergence (POST) herbicidal test on ECHCG. The settings on record: Echinochloa crus-galli, post-emergence, 480 h, ECHCG POST, 20 DAT, use rate 25 gai/ha. A digest of the protocol:
as §10

The subject of assay [10] is Euphorbia heterophylla. Description: Greenhouse post-emergence (POST) herbicidal test on EPHHL. The settings on record: 20 DAT; for % activity solo application: POST, EPHHL. A digest of the protocol: as §10
The test system of assay [11] is Ipomoea hederacea. Put plainly: Greenhouse post-emergence (POST) herbicidal test on IPOHE. As to conditions: 20 DAT; for % activity solo application: POST, IPOHE. A digest of the protocol:
as §10

The next assay relates to Alopecurus myosuroides. Description: Greenhouse pre-emergence (PRE) herbicidal test on ALOMY. The settings on record: PRE, ALOMY, 20 DAT. A digest of the protocol: as §1
Assay [12] relates to Echinochloa crus-galli. Description: Greenhouse pre-emergence (PRE) herbicidal test on ECHCG. As to conditions: PRE; for % activity solo application: ECHCG, 20 DAT; for % activity: 10 DAT.
In the next assay the test system is Digitaria sanguinalis. Put plainly: Greenhouse post-emergence (POST) herbicidal test on DIGSA. As to conditions: POST, DIGSA, 20 DAT. A digest of the protocol:
as §10

The test system of the next assay is AMAPA. Description: Greenhouse pre-emergence (PRE) herbicidal test on AMAPA. The settings on record: use rate 25 gai/ha, 10 DAT.

As for `Cc1ccccc1CO[C@@H]1C[C@@]2(C(C)C)CC[C@]1(C)O2` (racemic) [Cinmethylin, cinmethylin], the inhibition at 25 g/ha was found to be 0% in the assay on Euphorbia heterophylla [1] (Euphorbia heterophylla, pre-emergence, 480 h, PRE, EPHHL); 0% with Ipomoea hederacea [2] (use rate 25 gai/ha); 0% with Amaranthus retroflexus [4] (Amaranthus retroflexus, post-emergence, 480 h, POST, AMARE); 10% in the assay with Geranium pusillum [5] (POST, GERPU, use rate 25 gai/ha). Further, the inhibition at 50 g/ha in the assay on Euphorbia heterophylla [1] (Euphorbia heterophylla, pre-emergence, 480 h, PRE, EPHHL, use rate 50 gai/ha) came out at 0%; with Ipomoea hederacea [2] (use rate 50 gai/ha), 0%; in the assay with Abutilon theophrasti [3] (Abutilon theophrasti, post-emergence, 480 h, POST, ABUTH, use rate 50 gai/ha), 0%. The inhibition at 100 g/ha was found to be 0% with Abutilon theophrasti [3] (Abutilon theophrasti, post-emergence, 480 h, POST, ABUTH, use rate 100 gai/ha) and 30% with Amaranthus retroflexus [4] (Amaranthus retroflexus, post-emergence, 480 h, POST, AMARE, use rate 100 gai/ha, read-out: % activity).

For the molecule `COc1cc(OC)nc(Oc2cccc(Oc3nc(OC)cc(OC)n3)c2C(=O)O)n1` [Bispyribac-Sodium, bispyribac-sodium], the inhibition at […] with Abutilon theophrasti [6] (Abutilon theophrasti, pre-emergence, 480 h, PRE, use rate 7.5 gai/ha, 20 DAT, read-out: % activity) stood at 5%; in the assay on Geranium pusillum [7] (Geranium pusillum, pre-emergence, 480 h, use rate 7.5 gai/ha) it was 75%. The inhibition at 15 g/ha in the assay with Abutilon theophrasti [6] (Abutilon theophrasti, pre-emergence, 480 h, PRE, use rate 15 gai/ha, 20 DAT, read-out: % activity) was 45%; in the assay with Commelina benghalensis (Commelina benghalensis, pre-emergence, 480 h, PRE, use rate 15 gai/ha), 80%.

On to `CC(C)N(C(=O)COc1nnc(C(F)(F)F)s1)c1ccc(F)cc1` [Flufenacet, flufenacet], for which the inhibition at 12.5 g/ha with Abutilon theophrasti [6] (Abutilon theophrasti, pre-emergence, 480 h, ABUTH PRE, 20 DAT, use rate 12.5 gai/ha) worked out at 0%; in the assay on Amaranthus retroflexus [8] (Amaranthus retroflexus, pre-emergence, 480 h, AMARE PRE, use rate 12.5 gai/ha), 0%; in the assay with Ambrosia artemisiifolia (Ambrosia artemisiifolia, pre-emergence, 480 h, AMBEL PRE, 20 DAT, use rate 12.5 gai/ha) it was 0%; in the assay with Commelina benghalensis (Commelina benghalensis, pre-emergence, 480 h, COMBE PRE, use rate 12.5 gai/ha), 10%; in the assay on Euphorbia heterophylla [1] (Euphorbia heterophylla, pre-emergence, 480 h, EPHHL PRE, use rate 12.5 gai/ha) it was 10%; with Lolium multiflorum (Lolium multiflorum, pre-emergence, 480 h, LOLMU PRE, use rate 12.5 gai/ha), 0%. Also, the inhibition at 12.5 g/ha with Amaranthus retroflexus [4] (Amaranthus retroflexus, post-emergence, 480 h, AMARE POST, use rate 12.5 gai/ha) worked out at 15%; with Euphorbia heterophylla [10] (Euphorbia heterophylla, post-emergence, 480 h, EPHHL POST, use rate 12.5 gai/ha), 0%; with Geranium pusillum [5] (GERPU POST, use rate 12.5 gai/ha), 5%; in the assay with Ipomoea hederacea [11] (Ipomoea hederacea, post-emergence, 480 h, IPOHE POST, use rate 12.5 gai/ha), 0%. Also, the inhibition at 25 g/ha in the assay on Commelina benghalensis (Commelina benghalensis, pre-emergence, 480 h, COMBE PRE, use rate 25 gai/ha) came to 35%; in the assay with Euphorbia heterophylla [1] (Euphorbia heterophylla, pre-emergence, 480 h, EPHHL PRE), 10%; in the assay on Lolium multiflorum (Lolium multiflorum, pre-emergence, 480 h, LOLMU PRE, use rate 25 gai/ha), 35%; in the assay on Setaria viridis (Setaria viridis, pre-emergence, 480 h, SETVI PRE, use rate 25 gai/ha) it was 65%; in the assay on Abutilon theophrasti [3] (Abutilon theophrasti, post-emergence, 480 h, ABUTH POST, use rate 25 gai/ha), 0%; in the assay with Amaranthus retroflexus [4] (Amaranthus retroflexus, post-emergence, 480 h, AMARE POST), 25%. The inhibition at 25 g/ha with Echinochloa crus-galli [9] amounted to 85%; in the assay on Ipomoea hederacea [11] (Ipomoea hederacea, post-emergence, 480 h, IPOHE POST, use rate 25 gai/ha), 0%.

For `O=C(Nc1ccc(F)cc1)c1cccc(Oc2cccc(C(F)(F)F)c2)n1` [Picolinafen, picolinafen], the “% activity” value was determined as 25% with Alopecurus myosuroides (use rate 50 gai/ha), 15% in the assay with Geranium pusillum [7] (use rate 50 gai/ha) and 40% in the assay on Geranium pusillum [7] (use rate 100 gai/ha).

Consider `CCc1cccc(C)c1N(C(=O)CCl)[C@@H](C)COC` [S-Metolachlor, S-metolachlor], for which the “% activity solo application” value in the assay on Abutilon theophrasti [6] (PRE, 25 gai/ha, 20 DAT) stood at 0%; with Abutilon theophrasti [6] (PRE, 50 gai/ha, 20 DAT), 0%; with Alopecurus myosuroides (25 gai/ha), 0%; in the assay on Alopecurus myosuroides (50 gai/ha), 0%; with Amaranthus retroflexus [8] (25 gai/ha), 20%; with Amaranthus retroflexus [8] (50 gai/ha), 20%. The “% activity solo application” value in the assay with Ambrosia artemisiifolia (25 gai/ha, 20 DAT) is on record as 0%; in the assay with Ambrosia artemisiifolia (50 gai/ha, 20 DAT), 0%; in the assay on Commelina benghalensis (PRE, COMBE, 25 gai/ha), 10%; in the assay with Echinochloa crus-galli [12] (25 gai/ha), 20%; in the assay on Echinochloa crus-galli [12] (50 gai/ha), 50%; in the assay on Euphorbia heterophylla [1] (PRE, EPHHL, 25 gai/ha), 0%. Also, the “% activity solo application” value was 0% in the assay with Euphorbia heterophylla [1] (PRE, EPHHL, 50 gai/ha); 0% in the assay on Lolium multiflorum (25 gai/ha); 0% with Lolium multiflorum (50 gai/ha); 10% in the assay with Setaria viridis (25 gai/ha); 75% in the assay on Setaria viridis (50 gai/ha); 0% in the assay with Abutilon theophrasti [3] (POST, ABUTH, 25 gai/ha). In addition, the “% activity solo application” value was determined as 0% in the assay with Abutilon theophrasti [3] (POST, ABUTH, 50 gai/ha); 5% in the assay with Amaranthus retroflexus [4] (POST, AMARE, 25 gai/ha); 60% in the assay on Amaranthus retroflexus [4] (POST, AMARE, 50 gai/ha); 0% in the assay on Digitaria sanguinalis (25 gai/ha); 10% with Digitaria sanguinalis (50 gai/ha); 0% with Euphorbia heterophylla [10] (25 gai/ha). Also, the “% activity solo application” value is 5% in the assay with Euphorbia heterophylla [10] (50 gai/ha), 0% in the assay on Ipomoea hederacea [11] (25 gai/ha) and 0% in the assay with Ipomoea hederacea [11] (50 gai/ha).

As for icafolin, the “% activity” value with Abutilon theophrasti [6] (PRE, use rate 12.5 gai/ha, 10 DAT) is listed as 20%; in the assay on Ambrosia artemisiifolia (use rate 25 gai/ha), 10%; in the assay with Ambrosia artemisiifolia (use rate 50 gai/ha) it was 15%; in the assay on Echinochloa crus-galli [12] (use rate 12.5 gai/ha) it was 25%; in the assay on Echinochloa crus-galli [12] (use rate 50 gai/ha), 30%; in the assay with AMAPA, 10%.
